Tested on: SARS-CoV-2
Assay: microbe, parasite or virus in culture
Settings: Severe acute respiratory syndrome coronavirus 2, Vero C1008, 48 h

## O=C(O)C1(C(=O)O)CCC1
  IC50: > 20 µM
read-out: pIC50 (converted)
  IC50: > 20 µM

## C=C1c2c(Cl)ccc(O)c2C(=O)C2=C(O)[C@]3(O)C(=O)C(C(N)=O)=C(O)[C@@H](N(C)C)[C@@H]3[C@@H](O)C12 (stereo partly drawn)
  IC50: > 20 µM
read-out: pIC50 (converted)
  IC50: > 20 µM

## CC[C@@H](C(N)=O)N1CCCC1=O
  IC50: > 20 µM
read-out: pIC50 (converted)
  IC50: > 20 µM

## CC1=CC(=O)C2=C(C)CCC3C(C)C(=O)OC3C12 (stereo not drawn)
  IC50: > 20 µM
read-out: pIC50 (converted)
  IC50: > 20 µM

## COC(=O)Nc1nc2cc(SC(C)C)ccc2[nH]1
  IC50: > 20 µM
read-out: pIC50 (converted)
  IC50: > 20 µM

## CS(=N)(=O)CC[C@H](N)C(=O)O (stereo partly drawn)
  IC50: > 20 µM
read-out: pIC50 (converted)
  IC50: > 20 µM

## C=CC1CN2CCC1CC2C(O)c1ccnc2ccccc12 (stereo not drawn)
  IC50: > 20 µM
read-out: pIC50 (converted)
  IC50: > 20 µM

## COc1nccnc1NS(=O)(=O)c1ccc(N)cc1
  IC50: > 20 µM
read-out: pIC50 (converted)
  IC50: > 20 µM

## CC(C)N(CCNC(=O)CN1CCCC1=O)C(C)C
  IC50: > 20 µM
read-out: pIC50 (converted)
  IC50: > 20 µM

## CS(=N)(=O)CCC(N)C(=O)O (stereo not drawn)
  IC50: > 20 µM
read-out: pIC50 (converted)
  IC50: > 20 µM

## C/C=C1/C[N+]2(C)CCC34C(=C(C=O)[C@H]1C[C@@H]32)Nc1ccccc14 (stereo partly drawn)
  IC50: > 20 µM
read-out: pIC50 (converted)
  IC50: > 20 µM

## Cc1noc(COc2ccccc2OCC(O)CNC(C)(C)C)n1 (stereo not drawn)
  IC50: > 20 µM
read-out: pIC50 (converted)
  IC50: > 20 µM

## NC(Cc1c[nH]c2ccc(O)cc12)C(=O)O (stereo not drawn)
  IC50: > 20 µM
read-out: pIC50 (converted)
  IC50: > 20 µM

## COC(=O)[C@H](Cc1ccccc1)NC(=O)[C@@H](N)CC(=O)O
  IC50: > 20 µM
read-out: pIC50 (converted)
  IC50: > 20 µM

## Cc1n[nH]c(=O)[nH]c1=O
  IC50: > 20 µM
read-out: pIC50 (converted)
  IC50: > 20 µM

## Nc1nccc2c1ncn2C1OC(CO)C(O)C1O (stereo not drawn)
  IC50: > 20 µM
read-out: pIC50 (converted)
  IC50: > 20 µM

## C[N+]1(CCC(C(N)=O)(c2ccccc2)c2ccccc2)CCCCC1
  IC50: > 20 µM
read-out: pIC50 (converted)
  IC50: > 20 µM

## CNC(=O)c1ccc2cc([C@]3(O)CCn4cncc43)ccc2c1
  IC50: > 20 µM
read-out: pIC50 (converted)
  IC50: > 20 µM

## CC(C(N)C(=O)NC(C(=O)O)C1OC(n2ccc(=O)[nH]c2=O)C(O)C1O)C(O)c1ccc(O)cn1 (stereo not drawn)
  IC50: > 20 µM
read-out: pIC50 (converted)
  IC50: > 20 µM

## CC1=CCCC2C1(C)CCC(C)C2(C)Cc1cc(O)ccc1O (stereo not drawn)
  IC50: > 20 µM
read-out: pIC50 (converted)
  IC50: > 20 µM

## Cc1cc(S(N)(=O)=O)ccc1NC(=O)COc1ccc(Cl)cc1C(=O)c1cc(Cl)cc(C#N)c1
  IC50: > 20 µM
read-out: pIC50 (converted)
  IC50: > 20 µM

## O=C1CCC(c2ccccc2)(C2CCN(C/C=C/c3ccccc3)CC2)C(=O)N1 (stereo not drawn)
  IC50: > 20 µM
read-out: pIC50 (converted)
  IC50: > 20 µM

## NC(CC(=O)NO)C(=O)O (stereo not drawn)
  IC50: > 20 µM
read-out: pIC50 (converted)
  IC50: > 20 µM

## CCC(CC)[C@H](c1ccc(Nc2nc3ccccc3s2)cc1)n1cncn1
  IC50: > 20 µM
read-out: pIC50 (converted)
  IC50: > 20 µM

## O=[N+]([O-])OC1COC2C(O[N+](=O)[O-])COC12 (stereo not drawn)
  IC50: > 20 µM
read-out: pIC50 (converted)
  IC50: > 20 µM

## COc1ccc(CCN)cc1OC
  IC50: > 20 µM
read-out: pIC50 (converted)
  IC50: > 20 µM

## CNCCc1cnc[nH]1
  IC50: > 20 µM
read-out: pIC50 (converted)
  IC50: > 20 µM

## CC(=O)O[C@]1(C(C)=O)CCC2C3C[C@H](C)C4=CC(=O)CCC4(C)C3CCC21C (stereo partly drawn)
  IC50: > 20 µM
read-out: pIC50 (converted)
  IC50: > 20 µM

## Nc1nc(F)nc2c1ncn2[C@@H]1O[C@H](CO)[C@@H](O)[C@H]1O
  IC50: > 20 µM
read-out: pIC50 (converted)
  IC50: > 20 µM

## O=C(O)C1CCCN(CCC=C2c3ccccc3CCc3ccccc32)C1 (stereo not drawn)
  IC50: > 20 µM
read-out: pIC50 (converted)
  IC50: > 20 µM

## O=C(O)[C@H](O)[C@@H](O)[C@H](O[C@@H]1O[C@H](CO)[C@H](O)[C@H](O)[C@H]1O)[C@H](O)CO
  IC50: > 20 µM
read-out: pIC50 (converted)
  IC50: > 20 µM

## CCCN1CCC[C@@H](c2cccc(S(C)(=O)=O)c2)C1
  IC50: > 20 µM
read-out: pIC50 (converted)
  IC50: > 20 µM

## NC(=O)N=NC(N)=O
  IC50: > 20 µM
read-out: pIC50 (converted)
  IC50: > 20 µM

## CC(C)CN(C[C@@H](O)[C@H](Cc1ccccc1)NC(=O)[C@H](CC(N)=O)NC(=O)c1ccc2ccccc2n1)C(=O)NC(C)(C)C
  IC50: > 20 µM
read-out: pIC50 (converted)
  IC50: > 20 µM

## O=C1N[11C](=O)C(c2ccccc2)(c2ccccc2)N1
  IC50: > 20 µM
read-out: pIC50 (converted)
  IC50: > 20 µM

## O=C(O)c1ccc2[nH]nnc2c1
  IC50: > 20 µM
read-out: pIC50 (converted)
  IC50: > 20 µM

## CCCCCCC1C(=O)O[C@H](C)[C@H](NC(=O)c2cccc(NC=O)c2O)C(=O)O[C@@H](C)[C@@H]1OC(=O)CC(C)C (stereo partly drawn)
  IC50: > 20 µM
read-out: pIC50 (converted)
  IC50: > 20 µM

## OCC(O)COc1ccc(Cl)cc1 (stereo not drawn)
  IC50: > 20 µM
read-out: pIC50 (converted)
  IC50: > 20 µM

## OCC1CCC(n2cnc3c(O)ncnc32)O1 (stereo not drawn)
  IC50: > 20 µM
read-out: pIC50 (converted)
  IC50: > 20 µM

Reference: ChEMBL document CHEMBL4651402, “Screening of ~5500 FDA-approved drugs and clinical candidates for anti-SARS-CoV-2 activity” (2021)
